Data reported in patent US11214772B2, “Production method for retinal tissue” (SUMITOMO DAINIPPON PHARMA CO., LTD., priority 2014, dated 2022).

System: human iPS cells (201B7 strain)
Experiment: Bright field observation of cell aggregates in suspension culture (neuroepithelium formation)
Type: cell-based
Details: day 18
Procedure: The thus-prepared subconfluent human iPS cells were treated with the cell dispersion solution by using TrypLE Select (manufactured by Life Technologies), further dispersed into single cells by pipetting operation, and the above human iPS cells dispersed into single cells were suspended in 100 μl of a serum-free medium at 1.2×10^4 cells per well of a non-cell-adhesive 96-well culture plate (PrimeSurface 96V-bottom plate, SUMITOMO BAKELITE). Thereafter, the cells were subjected to suspension culturing at 37° C., 5% CO2. As the serum-free medium (gfCDM+KSR) therefor, a serum-free medium which is a 1:1 mixture of F-12 medium and IMDM medium supplemented with 10% KSR, 450 μM 1-monothioglycerol, 1× Chemically defined lipid concentrate was used. At the time of the start of suspension culturing (day 0 after the start of suspension culturing, start of step 2), a serum-free medium supplemented with SAG (final concentration […]) as a Shh signal transduction pathway activating substance and Y27632 (20 μM) was used (FIG. 5A-D). By day 2 after the start of suspension culturing, cell aggregates were formed. On day 3 after the start of suspension culturing, a serum-free medium (50 μl) free of Y27632 and SAG was added. […] The thus-prepared cell aggregates were subjected to bright field observation under an inverted microscope (BIOREVO manufactured by KEYENCE) on day 18 after the start of suspension culturing.
The thus-prepared subconfluent human iPS cells were treated with the cell dispersion solution by using TrypLE Select (manufactured by Life Technologies), further dispersed into single cells by pipetting operation, and the above human iPS cells dispersed into single cells were suspended in 100 μl of a serum-free medium at 1.0×10^4 cells per well of a non-cell-adhesive 96-well culture plate (SUMILON SPHEROID V-bottom plate PrimeSurface 96V-bottom plate, SUMITOMO BAKELITE). Thereafter, the cells were subjected to suspension culturing at 37° C., 5% CO2. As the serum-free medium (gfCDM+KSR) therefor, a serum-free medium which is a 1:1 mixture of F-12 medium and IMDM medium supplemented with 10% KSR, 450 μM 1-monothioglycerol, 1× Chemically defined lipid concentrate was used. At the time of the start of suspension culturing (day 0 after the start of suspension culturing, start of step 2), the above serum-free medium supplemented with Y27632 (final concentration 20 μM) and further supplemented with SAG (final concentration 30 nM), Purmorphamine (manufactured by Wako, final concentration 0.2 μM), or human recombinant Shh (manufactured by R&D, Recombinant N-Terminus, final concentration 50 ng/ml) as a Shh signal transduction pathway activating substance was used (FIG. 8). On day 2 after the start of suspension culturing, a cell aggregates were formed. […]

**Q.** How did the “neuroepithelium formation (bright field)” value (Example 3, Essential 8, SAG 300 μM day 0, with or without BMP4 1.5 nM day 6) turn out when `CNC1CCC(N(Cc2cccc(-c3ccncc3)c2)C(=O)c2sc3ccccc3c2Cl)CC1` (centres unmarked) [SAG] was run?
**A.** neuroepithelium was formed

**Q.** And the “neuroepithelium formation (bright field)” value (Example 6, StemFit, SAG 30 nM, Purmorphamine 0.2 μM or human recombinant Shh 50 ng/ml day 0, BMP4 1.5 nM day 3)?
**A.** neuroepithelium was formed
